# According to patent publication US10358409B2, “Low-toxicity olefinic ester compositions and methods of using the same” (Elevance Renewable Sciences, Inc., priority 2014, dated 2019):
# Tested on: leptocheirus plumolosus
# Assay: Aquatic toxicity, EPA Test No. 1644, percent survival after 10 days of exposure
# Format: in vivo
# Procedure: The aquatic toxicity of three cyclohexyl esters were tested against three comparative compounds. Aqueous samples of the following solvents were prepared at concentrations of 3200 mg/kg: xylene (Sample 2A); methyl 9-dodecenoate (Sample 2B); methyl esters of a mixture of C13-15 olefinic acids (Sample 2C); cyclohexyl 9-decenoate (Sample 2D); cyclohexyl 9-dodecenoate (Sample 2E); and cyclohexyl esters of a mixture of C13-15 olefinic acids. Using United States Environmental Protection Agency (EPA) Test No. 1644, the toxicity of the aqueous compositions was measured as the percent survival of leptocheirus plumolosus after 10 days of exposure. Table 1 recites the survival rates for each of the above compositions.
# [1] = Leptocheirus plumolosus, in vivo, 3200 mg/kg, 10 days
Molecule,Survival Rate (%) [1] [%],"Survival Rate (%) (aqueous samples of the solvent at 3200 mg/kg, percent survival of leptocheirus plumolosus after 10 days of exposure)"
"CCC=CCCCCCCCC(=O)OC [Sample 2B, methyl 9-dodecenoate]",47,
"C=CCCCCCCCC(=O)OC1CCCCC1 [Sample 2D, cyclohexyl 9-decenoate]",57,
"CCC=CCCCCCCCC(=O)OC1CCCCC1 [Sample 2E, cyclohexyl 9-dodecenoate]",89,
xylene [Sample 2A],,69
